Experimental data as given in patent US6599893B2, “Cephalosporin antibiotics and prodrugs thereof” (Essential Therapeutics, Inc., priority 2000, dated 2003).
≈ marks a conversion by molar mass, not a printed value.

Experiments:
[1] = tested on: Enterococcus faecalis ATCC 29212; test: Broth microdilution MIC, E. faecalis ATCC 29212; assay type: cell-based; conditions: ATCC29212; Enterococcus faecalis ATCC 29212; read-out: MIC E. f. 29212
Procedure: (§1) Compounds were evaluated for antimicrobial activity against a panel of bacterial strains using a broth microdilution assay performed as recommended by the NCCLS (NCCLS (National Committee for Clinical Laboratory Standards). 1993. Methods for dilution antimicrobial susceptibility tests for bacteria that grow aerobically. NCCLS Document M7-A3, 1993. In: NCCLS Antimicrobial Susceptibility Testing, 3rd Ed.)
(§2) The minimum inhibitory concentration (MIC) is defined as the lowest concentration of a compound that prevents the growth of the bacteria.

[2] = tested on: Staphylococcus aureus ATCC 29213 (MSSA); test: Broth microdilution MIC, S. aureus ATCC 29213; assay type: cell-based; conditions: Staphylococcus aureus ATCC 29213 (MSSA); read-out: MIC S. a. 29213
Procedure: as §1, §2

[3] = tested on: Staphylococcus aureus 76 (MRSA, β-lactamase producing); test: Broth microdilution MIC, S. aureus 76; assay type: cell-based; conditions: Staphylococcus aureus 76 (MRSA, β-lactamase producing); read-out: MIC S. a. 76
Procedure: as §1, §2

[4] = tested on: Staphylococcus aureus COL (MRSA, non-β-lactamase producing); test: Broth microdilution MIC, S. aureus COL; assay type: cell-based; conditions: Staphylococcus aureus COL (MRSA, non-β-lactamase producing); read-out: MIC S. a. COL
Procedure: as §1, §2

[5] = Human serum binding by ultrafiltration; assay type: in vitro ADME; conditions: pooled human serum, ultrafiltration, 10 minutes at 37° C.
Procedure: Binding of several representative compounds of this invention in pooled human serum was determined using ultrafiltration. Compounds were incubated in serum for 10 minutes at 37° C. in a shaking water bath. Serum ultrafiltrate was accomplished by centrifugation (Amicon Centrifree) for 20 minutes at 25° C. Compound content in the ultrafiltrate was quantified by HPLC. An ultrafilrate obtained by following the same procedure with no added compound was used as a standard.

[6] = tested on: Staphylococcus aureus Smith (MSSA); test: Broth microdilution MIC, S. aureus Smith; assay type: cell-based; conditions: Staphylococcus aureus Smith (MSSA); read-out: MIC S. a. Smith
Procedure: as §1, §2

[7] = Human serum binding estimated from serum effect on MIC (HSB*); assay type: in vitro ADME; conditions: MIC against S. aureus ATCC 29213 in growth medium vs 1:1 growth medium and human serum
Excerpt: An estimate of human serum binding (HSB*) was obtained for some compounds using the MIC values against S. aureus ATCC 29213 determined in growth medium (GM) and in a 1:1 mixture of growth medium and human serum (GM+HS):
HSB*=(MICGM+HS−MICGM)/MICGM 100%

[8] = tested on: Enterococcus faecium ATCC 35667; test: Broth microdilution MIC, E. faecium ATCC 35667; assay type: cell-based; conditions: ATCC35667; Enterococcus faecium ATCC 35667; read-out: MIC E. f. 35667
Procedure: as §1, §2

| Compound | MIC [1] | MIC [2] | MIC [3] | MIC [4] | HSB, human serum binding [5] | MIC [6] | HSB*, human serum binding calculated using serum effect on MIC [7] | MIC [8] |
| --- | --- | --- | --- | --- | --- | --- | --- | --- |
| Nc1nc(C(=NO)C(=O)N[C@@H]2C(=O)N3C(C(=O)O)=C(Sc4nnc(N)s4)CSC23)ns1 (stereo partly drawn) [Compound 37, (7R)-7-[2-(5-Amino-[1,2,4]thiadiazol-3-yl)-2-hydroxyimino-acetylamino]-3-(5-amino-[1,3,4]thiadiazol-2-ylsulfanyl)-8-oxo-5-thia-1-aza-bicyclo[4.2.0]oct-2-ene-2-carboxylic acid] | 2 µg/mL (≈ 3.99 µM) | 0.25 µg/mL (≈ 0.498 µM) | 4 µg/mL (≈ 7.98 µM) | 4 µg/mL (≈ 7.98 µM) | 79% | 0.125 µg/mL (≈ 0.249 µM) | 50% | 1 µg/mL (≈ 1.99 µM) |
| Nc1nc(C(=NO)C(=O)N[C@@H]2C(=O)N3C(C(=O)O)=C(Sc4nncs4)CSC23)c(Cl)s1 (stereo partly drawn) [Compound 41, (7R)-7-[2-(2-Amino-5-chlorothiazol-4-yl)-2-hydroxyiminoacetylamino]-8-oxo-3-([1,3,4]thiadiazol-2-ylsulfanyl)-5-thia-1-aza-bicyclo[4.2.0]oct-2-ene-2-carboxylic acid] | 0.25 µg/mL (≈ 0.481 µM) | 0.125 µg/mL (≈ 0.24 µM) | 1 µg/mL (≈ 1.92 µM) | 1 µg/mL (≈ 1.92 µM) | 91% | 0.125 µg/mL (≈ 0.24 µM) | 98% | 0.5 µg/mL (≈ 0.962 µM) |

Further compounds by falling MIC [1], results first:

| MIC [1] | MIC [2] | MIC [3] | MIC [4] | HSB, human serum binding [5] | MIC [6] | HSB*, human serum binding calculated using serum effect on MIC [7] | MIC [8] | Compound |
| --- | --- | --- | --- | --- | --- | --- | --- | --- |
| 1 µg/mL (≈ 1.99 µM) | 0.25 µg/mL (≈ 0.497 µM) | 8 µg/mL (≈ 15.9 µM) | 8 µg/mL (≈ 15.9 µM) | 92% | 0.5 µg/mL (≈ 0.994 µM) | 88% | 4 µg/mL (≈ 7.95 µM) | Nc1nc(C(=NO)C(=O)N[C@@H]2C(=O)N3C(C(=O)O)=C(Sc4nnc[nH]4)CSC23)c(Cl)s1 (stereo partly drawn) [Compound 40, (7R)-7-[2-(2-Amino-5-chlorothiazol-4-yl)-2-hydroxyimino-acetylamino]-8-oxo-3-(4H-[1,2,4]triazol-3-ylsulfanyl)-5-thia-1-aza-bicyclo[4.2.0]oct-2-ene-2-carboxylic acid] |
| 1 µg/mL (≈ 1.72 µM) | 0.5 µg/mL (≈ 0.86 µM) | 2 µg/mL (≈ 3.44 µM) | 2 µg/mL (≈ 3.44 µM) | 65% | 0.25 µg/mL (≈ 0.43 µM) | 75% | 4 µg/mL (≈ 6.88 µM) | Nc1nnc(SC2=C(C(=O)O)N3C(=O)[C@@H](NC(=O)C(=NOCCF)c4nc(N)sc4Cl)C3SC2)s1 (stereo partly drawn) [Compound 42, (7R)-7-[2-(2-Amino-5-chlorothiazol-4-yl)-2-(2-fluoroethoxyimino)-acetylamino]-3-(5-amino-[1,3,4]thiadiazol-2-ylsulfanyl)-8-oxo-5-thia-1-aza-bicyclo[4.2.0]oct-2-ene-2-carboxylic acid] |
| 0.25 µg/mL (≈ 0.467 µM) | 0.25 µg/mL (≈ 0.467 µM) | 2 µg/mL (≈ 3.74 µM) | 1 µg/mL (≈ 1.87 µM) | 90% | 0.25 µg/mL (≈ 0.467 µM) | 94% | 1 µg/mL (≈ 1.87 µM) | Nc1nnc(SC2=C(C(=O)O)N3C(=O)[C@@H](NC(=O)C(=NO)c4nc(N)sc4Cl)C3SC2)s1 (stereo partly drawn) [Compound 36, (7R)-7-[2-(2-amino-5-chlorothiazol-4-yl)-2-hydroxyiminoacetylamino]-3-(5-amino-[1,3,4]thiadiazol-2-ylsulfanyl)-8-oxo-5-thia-1-aza-bicyclo[4.2.0]oct-2-ene-2-carboxylic acid] |
